Holding throughout (type): functional
Common to all, as to conditions: time 18-20 hrs

The subject of experiment [1] is Escherichia coli. Put plainly: Antibacterial activity against Escherichia coli ATCC 25922 measured after 18 to 20 hrs by broth microdilution method.
The subject of experiment [2] is Pseudomonas aeruginosa. Put plainly: Antibacterial activity against Pseudomonas aeruginosa PAO1 measured after 18 to 20 hrs by broth microdilution method.
In experiment [3] the test system is Pseudomonas aeruginosa. Put plainly: Antibacterial activity against Pseudomonas aeruginosa FB measured after 18 to 20 hrs by broth microdilution method.
Experiment [4] has as its system Pseudomonas aeruginosa. Put plainly: Antibacterial activity against Pseudomonas aeruginosa 1121 measured after 18 to 20 hrs by broth microdilution method.
Experiment [5] deals with Pseudomonas aeruginosa. As to the kind of experiment: Antibacterial activity against Pseudomonas aeruginosa 27853 measured after 18 to 20 hrs by broth microdilution method.
Experiment [6] has as its system Staphylococcus aureus. As to the kind of experiment: Antibacterial activity against Staphylococcus aureus ATCC 25923 measured after 18 to 20 hrs by broth microdilution method.
In experiment [7] the test system is Klebsiella pneumoniae. Put plainly: Antibacterial activity against Klebsiella pneumoniae ATCC 700603 measured after 18 to 20 hrs by broth microdilution method.

In brackets after ≈: the same amount, converted by molar mass.

Regarding `CC(C)=CCc1c(OCCCCCC(=O)NCc2cc(=O)c(O)cn2C)cc(/C=C/c2ccc(F)cc2)c(C(=O)O)c1O`, the MIC in experiment [1] is greater than 250 µM; in experiment [2], 31.2 µM (≈ 18.5 µg/mL); in experiment [3], greater than 250 µM; in experiment [4], 31.2 µM (≈ 18.5 µg/mL); in experiment [5] it was 31.2 µM (≈ 18.5 µg/mL); in experiment [6], greater than 250 µM. The MIC in experiment [7] was greater than 250 µM.
For `CC(C)=CCc1c(OCCCCCC(=O)NCc2c(O)c(=O)cc(C)n2C)cc(/C=C/c2ccc(F)cc2)c(C(=O)O)c1O`, the MIC in experiment [1], in experiment [2], in experiment [3], in experiment [4], in experiment [5] and in experiment [6] was greater than 250 µM throughout. The compound also gave an MIC in experiment [7] greater than 250 µM.
In the case of `CC(C)=CCc1c(OCc2cn(CCn3cc(O)c(=O)cc3C)nn2)cc(/C=C/c2ccc(F)cc2)c(C(=O)O)c1O`, the MIC was greater than 250 µM in experiment [1]; 125 µM (≈ 71.8 µg/mL) in experiment [2]; 250 µM (≈ 144 µg/mL) in experiment [3]; 250 µM (≈ 144 µg/mL) in experiment [4]; 62.5 µM (≈ 35.9 µg/mL) in experiment [5]; greater than 250 µM in experiment [6]. The same compound gave an MIC in experiment [7] greater than 250 µM.
Turning to `CC(C)=CCc1c(OCc2cn(CCCCCCC(=O)NCc3cc(=O)c(O)cn3C)nn2)cc(/C=C/c2ccc(F)cc2)c(C(=O)O)c1O`, the MIC was greater than 250 µM in experiment [1]; 15.6 µM (≈ 10.7 µg/mL) in experiment [2]; greater than 250 µM in experiment [3]; greater than 250 µM in experiment [4]; greater than 250 µM in experiment [5]; greater than 250 µM in experiment [6]. Moreover, the MIC in experiment [7] is greater than 250 µM.
In the case of `CCCCCCCC(=O)NCc1cc(=O)c(O)cn1C`, the MIC in experiment [1], in experiment [2], in experiment [3], in experiment [4], in experiment [5] and in experiment [6] was greater than 250 µM each time. In addition, the MIC in experiment [7] is greater than 250 µM.
As to `CC(C)=CCc1c(OCCCCCC(=O)NCc2cc(=O)c(O)cn2C)cc(CSc2ccc(F)cc2)c(C(=O)O)c1O`, the MIC in experiment [1], in experiment [2], in experiment [3], in experiment [4], in experiment [5] and in experiment [6] was greater than 250 µM in each case. The MIC in experiment [7] was greater than 250 µM.
Consider `CCCn1cc(O)c(=O)cc1CNC(=O)CCCCCCOc1cc(/C=C/c2ccc(F)cc2)c(C(=O)O)c(O)c1CC=C(C)C`, for which the MIC is greater than 250 µM in experiment [1]; 7.8 µM (≈ 4.95 µg/mL) in experiment [2]; greater than 250 µM in experiment [3]; greater than 250 µM in experiment [4]; 31.2 µM (≈ 19.8 µg/mL) in experiment [5]; greater than 250 µM in experiment [6]. The same compound registered a minimal inhibitory concentration (MIC) in experiment [7] greater than 250 µM.
`CC(C)=CCc1c(OCCCCCCC(=O)NCc2c(O)c(=O)cc(C)n2C)cc(CSc2ccc(F)cc2)c(C(=O)O)c1O`: the MIC in experiment [1], in experiment [2], in experiment [3], in experiment [4], in experiment [5] and in experiment [6] was greater than 250 µM each time. In experiment [7], the MIC is greater than 250 µM.
For the compound `CCCCCCC(=O)NCc1cc(=O)c(O)cn1C`, the MIC in experiment [1], in experiment [2], in experiment [3], in experiment [4], in experiment [5] and in experiment [6] was greater than 250 µM throughout. Further, the MIC in experiment [7] was greater than 250 µM.
With `CC(C)=CCc1c(OCc2cn(Cc3cc(=O)c(O)cn3C)nn2)cc(/C=C/c2ccc(F)cc2)c(C(=O)O)c1O`, the MIC in experiment [1], in experiment [2], in experiment [3], in experiment [4], in experiment [5] and in experiment [6] was greater than 250 µM in each case. Besides, in experiment [7], the MIC is greater than 250 µM.
With `CC(C)=CCc1c(OCCCCCCCC(=O)NCc2c(O)c(=O)cc(C)n2C)cc(/C=C/c2ccc(F)cc2)c(C(=O)O)c1O`, the MIC in experiment [1], in experiment [2], in experiment [3], in experiment [4], in experiment [5] and in experiment [6] was greater than 250 µM each time. The MIC in experiment [7] was greater than 250 µM.
Take `CC(C)=CCc1c(OCCCCCCC(=O)NCc2cc(=O)c(O)cn2C)cc(CSc2ccc(F)cc2)c(C(=O)O)c1O`: the MIC is greater than 250 µM in experiment [1]; 7.8 µM (≈ 4.89 µg/mL) in experiment [2]; greater than 250 µM in experiment [3]; greater than 250 µM in experiment [4]; greater than 250 µM in experiment [5]; greater than 250 µM in experiment [6]. In addition, the MIC in experiment [7] is greater than 250 µM.
Consider `CC(C)=CCc1c(OCCCCCC(=O)NCc2c(O)c(=O)cc(C)n2C)cc(CSc2ccc(F)cc2)c(C(=O)O)c1O`, for which the MIC in experiment [1], in experiment [2], in experiment [3], in experiment [4], in experiment [5] and in experiment [6] was greater than 250 µM throughout. The MIC in experiment [7] is greater than 250 µM.
For `COc1cc(CSc2ccc(F)cc2)c(C(=O)O)c(O)c1CC=C(C)C`, the MIC in experiment [1] is greater than 250 µM; in experiment [2], greater than 250 µM; in experiment [3], greater than 250 µM; in experiment [4] it was greater than 250 µM; in experiment [5], greater than 250 µM; in experiment [6] it was 62.5 µM (≈ 23.5 µg/mL). In experiment [7], the MIC is greater than 250 µM.
For `CC(C)=CCc1c(OCCCCCCC(=O)NCc2c(O)c(=O)cc(C)n2C)cc(/C=C/c2ccc(F)cc2)c(C(=O)O)c1O`, the MIC in experiment [1] is greater than 250 µM; in experiment [2], 7.81 µM (≈ 4.85 µg/mL); in experiment [3], greater than 250 µM; in experiment [4], greater than 250 µM; in experiment [5] it was greater than 250 µM; in experiment [6] it was greater than 250 µM. Also, the MIC in experiment [7] was greater than 250 µM.
Regarding `CC(C)=CCc1c(OCCCCCCCC(=O)NCc2cc(=O)c(O)cn2C)cc(CSc2ccc(F)cc2)c(C(=O)O)c1O`, the MIC in experiment [1], in experiment [2], in experiment [3], in experiment [4], in experiment [5] and in experiment [6] was greater than 250 µM in each case. Also, the MIC in experiment [7] was greater than 250 µM.
Consider `CC(C)=CCc1c(OCCCCC(=O)NCc2cc(=O)c(O)cn2C)cc(/C=C/c2ccc(F)cc2)c(C(=O)O)c1O`, for which the MIC is greater than 250 µM in experiment [1]; 31.2 µM (≈ 18.1 µg/mL) in experiment [2]; 31.2 µM (≈ 18.1 µg/mL) in experiment [3]; 31.2 µM (≈ 18.1 µg/mL) in experiment [4]; 31.2 µM (≈ 18.1 µg/mL) in experiment [5]; greater than 250 µM in experiment [6]. Moreover, the MIC in experiment [7] was greater than 250 µM.
Turning to `CC(C)=CCc1c(OCc2cn(CCCn3cc(O)c(=O)cc3C)nn2)cc(/C=C/c2ccc(F)cc2)c(C(=O)O)c1O`, the MIC in experiment [1] was greater than 250 µM; in experiment [2], 31.2 µM (≈ 18.4 µg/mL); in experiment [3], greater than 250 µM; in experiment [4], greater than 250 µM; in experiment [5], 31.2 µM (≈ 18.4 µg/mL); in experiment [6], greater than 250 µM. In experiment [7], the MIC was greater than 250 µM.
As to `CC(C)=CCc1c(OCCCCCCCC(=O)NCc2c(O)c(=O)cc(C)n2C)cc(CSc2ccc(F)cc2)c(C(=O)O)c1O`, the minimal inhibitory concentration (MIC) in experiment [1], in experiment [2], in experiment [3], in experiment [4], in experiment [5] and in experiment [6] was greater than 250 µM throughout. Also, in experiment [7], the MIC was greater than 250 µM.
As for `CCn1cc(O)c(=O)cc1CNC(=O)CCCCCCOc1cc(/C=C/c2ccc(F)cc2)c(C(=O)O)c(O)c1CC=C(C)C`, the MIC in experiment [1] is greater than 250 µM; in experiment [2], 7.8 µM (≈ 4.84 µg/mL); in experiment [3], greater than 250 µM; in experiment [4] it was greater than 250 µM; in experiment [5], 31.2 µM (≈ 19.4 µg/mL); in experiment [6], greater than 250 µM. This compound yielded an MIC in experiment [7] greater than 250 µM.

Values taken from ChEMBL document CHEMBL5512647, “Cajaninstilbene acid derivatives conjugated with siderophores of 3-hydroxypyridin-4(1H)-ones as novel antibacterial agents against Gram-negative bacteria based on the Trojan horse strategy” (Eur J Med Chem, 2024).
